Like-named read-outs stand apart in the source and are kept apart here.

Here are results for three molecules from paper PMC5933457, “Probing biological activity through structural modelling of ligand-receptor interactions of 2,4-disubstituted thiazole retinoids” (Bioorganic & Medicinal Chemistry, 2018).

Assay [1] concerns TERA2.cl.SP12 embryonal carcinoma stem cells. Nature of the assay: Flow cytometry of cell-surface differentiation markers SSEA-3, TRA-1–60, A2B5. The settings on record: 10 μM retinoid, 7 days, compared to ATRA and control cultures, Fig. 7A. Format: cell-based, human. The text has this:
First, we examined neuronal differentiation in pluripotent TERA2.cl.SP12 human embryonal carcinoma stem cells in response to retinoid treatment. TERA2.cl.SP12 cells have been used in previous studies, [29] to test the ability of synthetic retinoids to induce differentiation along a neuronal or an alternative epithelial pathway at long in vitro timescales of up to three weeks. […] Since the parent carboxylic acid (GZ24) had little activity, the response to GZ22 was a real effect of the ester rather than a result of hydrolysis of the parent ester to the carboxylic acid.
The expression of specific cell surface protein markers (SSEA-3, TRA-1–60, A2B5) on TERA2.cl.SP12 was analyzed using flow cytometry as described previously.[53] Briefly, TERA2.cl.SP12 cells, 2 × 10^5 per 25 cm^2 flask, were seeded 12–24 h before treatment with 10 μM retinoid for 7 days. The primary antibodies used were SSEA-3 (diluted 1:10, University of Iowa Hybridoma Bank), TRA-1–60 (diluted 1:50, Abcam) and neural cell marker A2B5 (diluted 1:40, R&D Systems). Labeled cells were analyzed in a Guave EasyCyte Plus System (Millipore) flow cytometer and thresholds determining the numbers of positively expressing cells were set against the negative control antibody, P3X.
For orientation: Flow cytometry measures light scatter and fluorescence of single cells or particles in a stream.

In assay [2] the target is T1, RARα ligand-binding domain (GST-RAR-α-LBD) (Homo sapiens, UniProt P10276).
T1 construct: purchased Invitrogen
T1 sequence (P10276 183-417 limits assumed): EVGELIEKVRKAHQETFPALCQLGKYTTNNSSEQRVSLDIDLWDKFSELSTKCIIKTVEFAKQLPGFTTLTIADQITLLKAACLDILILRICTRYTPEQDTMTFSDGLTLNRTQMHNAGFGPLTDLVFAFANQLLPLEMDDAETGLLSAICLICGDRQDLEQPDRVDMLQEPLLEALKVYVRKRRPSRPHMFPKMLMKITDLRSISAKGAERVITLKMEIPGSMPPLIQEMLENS
Nature of the assay: LanthaScreen TR-FRET RARα co-activator (receptor binding) assay. Format: biochemical. The settings on record: for EC50: read-out: EC50 (95% confidence range) RARα; for binding-curve upper asymptote (coactivator recruitment), RARα: in words, Fig. 6A. Here is the method:
These predictions were tested through a receptor-binding assay for each RAR isotype (Fig. 6), where the assay signal is dependent on two parameters: the binding affinity of ligand to the RAR LBD, and the affinity of the coactivator for the ligand-LBD complex. For this assay, binding curves and variation in level of the upper asymptote can reflect differences in co-activator affinity for the ligand-LBD complex; variation in affinity of ligand for LBD shifts the midpoint (EC50) of the binding curve, whereas changes in the level of the upper asymptote may result from changes in coactivator affinity for the ligand-LBD complex alone, or in combination with changes in affinity for ligand with LBD.[23]
The binding interaction of each retinoid with RARα, β and γ were determined in vitro by time-resolved fluorescence resonance energy transfer (TR-FRET) using the LanthaScreen TR-FRET RARα, RARβ, and RARγ co-activator assays according to the manufacturer’s (Invitrogen™) instructions.[23] This uses a terbium-labeled anti-GST antibody, a fluorescein-labeled co activator peptide, and RARα/β/γ ligand-binding domains (LBD) that are tagged with glutathione-S-transferase (GST) in a homogenous assay format. All experiments were performed in black, 384-well low-volume plates in the dark at RT with a 4 h incubation time. The final assay volume was 20 μL and all dilutions were carried out using TR-FRET assay buffer, with a final DMSO concentration of 1%. A mixture of either 3.5 nM GST-RAR-α-LBD or 2.5 nM GST-RAR-β-LBD or 3 nM GST-RAR-γ-LBD with 62.5 nM Tb-anti GST antibody and 30 μM fluorescein-labeled peptide and retinoid or DMSO control was added to each of the wells. Each ligand assay was performed in duplicate and measured using a PHERAstar FS Microplate Reader (BMG Labtech, Ortenberg, Germany) with instrument settings as described in the manufacturer’s instructions for LanthaScreen assays. The TR-FRET signal was expressed as the ratio of the signals at 520 nm and 490 nm. The data were fitted to a three-parameter ligand-binding curve using SigmaPlot (version 12.5, Systat Software Inc., San Jose CA) and normalized to the lower asymptote of each binding curve. […] Since the assay involves interactions between ligand and LBD, and ligand-dependent interactions between the LBD and fluorescein-labeled co activator, the binding assay data were interpreted by simulating these coupled chemical reactions using the biochemical simulator COPASI version 4.3.[23], [54]
The readout of the Lanthascreen TR-FRET binding assay is based on a Forster resonance energy transfer (FRET) signal generated from the interaction between a terbium-labelled anti-glutathione-S-transferase (GST) antibody and a fluorescein-labelled coactivator peptide. The RAR ligand-binding domain (LBD) is a GST fusion protein and interaction between the LBD and the fluorescein-labelled coactivator peptide is driven by the binding of ligand to the LBD, and detected by the FRET signal from the terbium/fluorescein interaction when the terbium-labelled anti-GST binds the LBD fusion protein. The output of the assay thus relies on two binding interactions: ligand with LBD, and ligand-bound LBD with the coactivator peptide. As both interactions may be affected by the fit of ligand to the binding pocket of the LBD, we used the biochemical pathway simulator COPASI^1 to build a simple model of how the FRET signal output in the assay will vary according to differential changes in the kinetics of the two binding interactions. Reactions were modelled deterministically using mass-action kinetics described by ordinary differential equations (ODE) within COPASI.^1 This model enables us to assess the effect of different rate constants and varying ligand concentration on the formation of the final ternary complex that is the read-out from the Lanthascreen TR-FRET assay.

Setting [3] is: estimated EC50, TR-FRET co-activator assay, 4 h incubation.

The term EC50 denotes the concentration giving half of the maximal effect. Take `CCOCCOc1nc(-c2ccc(C(=O)O)cc2)sc1C` [GZ18]: the “proportion of cells expressing differentiation markers SSEA-3, TRA-1–60, A2B5” value in assay [1] is given as “very little activity”. In assay [2] (setting [3]), the EC50 was 15.1 nM. Further, the “binding-curve upper asymptote (coactivator recruitment), RARα” value (shortened to “binding-curve upper asymptote”) in assay [2] is on record as “high curve asymptotes”.

Regarding `CCOC(=O)c1ccc(-c2nc(-c3ccccc3)c(C)s2)cc1` [GZ22], in assay [1], the “proportion of cells expressing differentiation markers SSEA-3, TRA-1–60, A2B5” value is “Intermediate responses”. For the same molecule, the EC50 in assay [2] (setting [3]) is 82 nM. In assay [2], the “binding-curve upper asymptote” value is “lower asymptotes”.

For the molecule `Cc1sc(-c2ccc(C(=O)O)cc2)nc1-c1ccc2c(c1)C(C)(C)CCC2(C)C` [GZ25], the “proportion of cells expressing differentiation markers SSEA-3, TRA-1–60, A2B5” value in assay [1] is reported as “most potent, even compared to ATRA”. Moreover, in assay [2], the “binding-curve upper asymptote” value was “high curve asymptotes” and the EC50 was determined as 8.2 nM.
